Data from patent publication US20140309192A1, “MODULATORS OF THE G PROTEIN-COUPLED MAS RECEPTOR AND THE TREATMENT OF DISORDERS RELATED THERETO” (ARENA PHARMACEUTICALS, INC., priority 2011, published 2014).

Legend:
[1] = biological target: T1, rat Mas receptor (Rattus norvegicus, UniProt P12526); experiment: cAMP Dynamic2 HTRF assay, HEK293 cells stably expressing rat Mas receptor; format: cell-based; details: forskolin stimulated cAMP, means ± SEM, NR = No Response, read-out: Gi/cAMP IC50
T1 construct: expressed in transfected cells; host or cells: HEK293 (ATCC CRL-1573)
T1 sequence (P12526 1-324): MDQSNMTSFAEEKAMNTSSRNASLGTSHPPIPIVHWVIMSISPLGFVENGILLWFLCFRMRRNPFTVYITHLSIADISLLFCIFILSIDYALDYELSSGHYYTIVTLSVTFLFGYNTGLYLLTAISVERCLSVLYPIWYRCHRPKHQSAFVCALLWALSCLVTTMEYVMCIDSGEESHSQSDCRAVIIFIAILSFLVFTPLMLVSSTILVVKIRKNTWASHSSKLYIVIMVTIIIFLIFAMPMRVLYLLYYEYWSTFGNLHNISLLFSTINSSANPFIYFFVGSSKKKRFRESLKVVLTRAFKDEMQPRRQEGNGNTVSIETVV
Method: cAMP accumulation in HEK293 cells stably expressing human or rat Mas receptors was determined by the 384 well cAMP Dynamic2 Homogenous Time-Resolved Fluorescence (HTRF®) assay (CisBio Cat#62AM4PEB) following the manufacturer's protocol. Briefly, cells were plated at 30,000 or 1000 cells per well in 5 μL stimulation buffer (PBS containing 500 μM IBMX and 0.1% bovine serum albumin), 5 μL of Mas compounds diluted in PBS were added to each well and serial diluted cAMP standards were also added to corresponding wells at this step. For detecting […] activities, 10 μM forskolin was included with the compounds for a final concentration of 5 μM at the stimulation step. Following 1 h stimulation at room temperature, d2-labeled cAMP and anti-cAMP cryptate conjugate diluted in detection buffer (included in the kit) were added to cells sequentially at 5 μl per well. The plates were incubated further for 1 h at room temperature. Ratiometic measurements of fluorescence emission at 665 nm and 620 nm were obtained by Pherastar fluorometer (BMG Labtech) and cAMP levels in each well were calculated according to the standard curves on each plate. IC50 values were obtained by fitting data to a nonlinear curve-fitting program (GraphPad Software, Inc., La Jolla Calif.).

[2] = test system: control HEK293 cells; experiment: HTRF IP1 assay in control HEK293 cells; format: cell-based; details: IP assay
Description: Human and rat Mas receptors were either transiently or stably expressed in HEK293 cells. For transient transfections, human or rat Mas in pHM6 vector were transfected into HEK293 cells using Lipofectamine® (Invitrogen #18324-012). HEK293 cells transfected with empty pHM6 vector were used as a control. For generation of stable cell lines, cDNA expression plasmids encoding human or rat Mas genes and the neo^r gene were transfected into HEK293 cells (ATCC# CRL-1573) using Lipofectamine® (Invitrogen) according to the manufacturer's instructions. Stable receptor expressing pools were then generated over 3 weeks by standard techniques in the presence of 500 μg/mL Geneticin® (Gibco). Individual receptor stable pools were dilution cloned using standard techniques and clones were comparatively evaluated in inositol phosphate accumulation assays. Preferred clones were banked and cultured as needed. HEK293 cells were used as controls. The 384 well IP-One HTRF® Assay (Cisbio #62P1APEJ) was performed as described by the manufacturer's protocol. Cells were plated in at 100,000 cells per well in 15 μL DMEM (Gibco #11960) and incubated in a CO2 incubator at 37° C. for 2 h. […] IP1 levels in each well were calculated according to the standard curves on each plate. […]

[3] = Mean arterial blood pressure in anesthetized rats (Example 4); format: in vivo, rat; details: low, medium and high dose i.v.; 25 min after starting dosing
Method: Adult rats were anesthetized with sodium pentobarbital (50 mg/kg i.p.) and placed in the supine position on a surgery frame with a heating pad (37° C.) beneath. Rats were tracheostomized and ventilated with a SAR-830 small-animal ventilator (Model 683, Harvard Apparatus) to provide room air at a tidal volume of 2.5 mL/stroke and at a rate of 70 stroke/min. Polyethylene catheters were placed in the right internal carotid artery and the external jugular vein for measurement of mean arterial blood pressure and infusion of drug or vehicle, respectively.
Animals were randomly divided into the following 4 groups: (1-3) low, medium, and high doses of Compound 170 administered by continuous i.v. infusion starting 30 min before coronary artery ligation (n=6 per dose), and (4) 20% HPBCD (vehicle, hydroxypropyl-β-cyclodextrin) administered by continuous i.v. infusion beginning 30 min before coronary artery ligation (n=6). All the rat hearts listed above were used for calculation of myocardial infarct size (see below). Mean arterial blood pressure was measured after stabilization and just prior to drug infusion (baseline) and again following 25 min of drug or vehicle infusion, before coronary artery ligation. […]

In the case of COc1cc([N+](=O)[O-])ccc1S(=O)(=O)N1CC(CN2CCN(c3ccccn3)CC2)C(c2cccc(F)c2)C1 (stereo not drawn) [AR234960], the IC50 [1] is reported as 1710 ± 11 nM and the “effects in control HEK293 cells” value [2] is reported as “There were detected effects”.

For NC(=O)[C@H](CO)NCc1ccc(C(=O)Nc2ccc(Cl)cc2N2CCN(CCC(F)(F)F)CC2)c(F)c1F [Compound 170, (S)-4-((1-Amino-3-hydroxy-1-oxopropan-2-ylamino)methyl)-N-(4-chloro-2-(4-(3,3,3-trifluoropropyl)piperazin-1-yl)phenyl)-2,3-difluorobenzamide], the “mean arterial blood pressure (MAP) compared to vehicle treatment” value [3] was “no significant effect”.
